Test results taken from US20150025077A1 (COYOTE PHARMACEUTICALS, INC., priority 2012, published 2015).
Values joined by “and” are separate entries in the source; they are usually repeats but may differ in a detail not shown here. Equal values may be shown once.

Experiments:
[1] = Pharmacokinetics of CNS-102 in rats (IV, oral); format: in vivo; conditions: rat
Protocol: Rats were administered a single dose of CNS-102 either intravenously (12 mg/kg) or orally (24 mg/kg), and blood samples were taken to measure the average plasma concentrations of CNS-102 over time.
The formulation for this study includes the following: […]
Formulations: (Dose: 24 mg/kg; Study Date: 4-16-2012)

[2] = tested on: HSP70; assay: HSP70 expression in neuro2A cells, western blot; format: cell-based, mouse; conditions: for HSP70 western signal (absence of compounds = 1.00): 48 hours, GGTI-298
Protocol: Differentiation was induced and cells incubated with geranylgeranyl transferase I inhibitor, GGTI-298. Cells were harvested and lysates were prepared and analyzed by western blot for HSP70 and HSP90. Western signals in the absence of the compounds were normalized as 1.00.

[3] = tested on: Sprague Dawley rats; assay: Kainic acid stereotactic hippocampus injection model, fraction of cells damaged; format: in vivo, rat; conditions: for Difference of mean fraction damaged to pooled PBS / Mean fraction of cells damaged in the hippocampus: 12 mg/kg oral; for Mean fraction of cells damaged in the hippocampus: pooled PBS 0.187
Protocol: CNS-102 was administered orally to Sprague Dawley rats at 12 mg/kg. After dosing, KA was stereotactically injected into the hippocampus at 24, 48, 72, 96 and 168 hours to induce neuron damage. After 24 h, hippocampus tissue was collected, stained, and imaged. The scans were analyzed by Image J to calculate the fraction of cells having KA-induced damage. Average fraction damaged in the hippocampus from ten animals for each treatment (PBS vs. 12 mg/kg CNS-102) by time (24, 48, 72, 96 and 168 hours) combination was estimated with PROC MIXED in SAS. Comparisons of the CNS-102 treatment groups to the pooled PBS treatment at the different times can be made, giving the results tabulated below.
The fraction of cells damaged in the kainic acid model was determined on 130 rats, each receiving one dose of CNS-102 at either 0, 1, 3, 6, 12 or 24 mg/kg. PBS was used for dosing at 0 mg/kg. The linear model of the log10 percent damage versus concentration is graphically shown FIG. 5.
After dosing, KA was stereotactically injected into the hippocampus at 72 hours to induce neuron damage. After 24 h, hippocampus tissue was collected, stained, and imaged. The scans were analyzed by Image J to calculate the fraction of cells having KA-induced damage.
The indicated compounds or vehicle control were orally dosed to Sprague-Dawley rats, and Kainic acid was injected. After dosing, KA was stereotactically injected into the hippocampus at 72 hours to induce neuron damage. After 24 h, hippocampus tissue was collected, stained, and imaged. The scans were analyzed by Image J to calculate the fraction of cells having KA-induced damage. Neurons damaged by Kainic acid (mean of hippocampus CA3 neurons damaged) were quantified.

[4] = tested on: HSP70; assay: HSP70 induction in rat hippocampus with or without kainic acid injection (immunohistochemistry, western blot); format: in vivo; conditions: KA stereotactically injected in hippocampus; localized in the injection site
Protocol: Stereotactic injections of Kainic acid into rat hippocampus tissues led to increased damages in neurons. […] Under this condition, neurons and HSP70 expression was stained by immunohistochemistry techniques. HSP70 expression was induced in a very specific area only that KA was injected. The induced area was not stained by HSP70 antibody when KA was not injected, but CNS-102 was dosed.
HSP70 induction by dosing CNS-102 in the absence of the KA injection was limited in western blot experiments using hippocampus lysates. 120% or 130% of HSP70 expression could be seen by comparing those of vehicle dosing control experiments.

[5] = 12 mg/kg IV, individual rats 1-3, 12 mg/kg
[6] = 12 mg/kg IV, individual rats 2, 3, 12 mg/kg
[7] = 24 mg/kg oral vs 12 mg/kg IV, average
[8] = 24 mg/kg oral, individual rats 4-6, 24 mg/kg

Compound: CC(=O)CC/C=C(\C)CC/C=C(\C)CC/C=C(\C)CCC=C(C)C [CNS-102]
- Plasma Concentration of CNS-102 ([1]; 12 mg/kg IV, 5 min, average): 2402.5 ng/mL
- Plasma Concentration of CNS-102 ([1]; 12 mg/kg IV, 5 min, individual rats 1-3, 12 mg/kg): 1268.2 ng/mL and 4087.5 ng/mL
- Plasma Concentration of CNS-102 ([1]; 12 mg/kg IV, 10 min, average): 869.6 ng/mL
- Plasma Concentration of CNS-102 ([1]; 12 mg/kg IV, 10 min, individual rats 1-3, 12 mg/kg): 227.0 ng/mL and 929.0 ng/mL
- Plasma Concentration of CNS-102 ([1]; 12 mg/kg IV, 20 min, average): 518.9 ng/mL
- Plasma Concentration of CNS-102 ([1]; 12 mg/kg IV, 20 min, individual rats 1-3, BQL set to zero, 12 mg/kg): 0.00 ng/mL and 652.7 ng/mL
- Plasma Concentration of CNS-102 ([1]; 12 mg/kg IV, 30 min, average): 334.7 ng/mL
- Plasma Concentration of CNS-102 ([1]; 12 mg/kg IV, 30 min, individual rats 1-3, BQL set to zero): 0.00 ng/mL
- Plasma Concentration of CNS-102 ([1]; 12 mg/kg IV, 60 min, average): 325.8 ng/mL
- Plasma Concentration of CNS-102 ([1]; 12 mg/kg IV, 60 min, individual rats 1-3, BQL set to zero): 0.00 ng/mL
- Plasma Concentration of CNS-102 ([1]; 12 mg/kg IV, 120 min, average): 150.2 ng/mL
- Plasma Concentration of CNS-102 ([1]; 12 mg/kg IV, 120 min, individual rats 1-3, BQL set to zero): 0.00 ng/mL
- Plasma Concentration of CNS-102 ([1]; 12 mg/kg IV, 240 min, average): 209.0 ng/mL
- Plasma Concentration of CNS-102 ([1]; 12 mg/kg IV, 240 min, individual rats 1-3, BQL set to zero): 0.00 ng/mL
- Plasma Concentration of CNS-102 ([1]; 12 mg/kg IV, 480 min, average): 77.4 ng/mL
- Plasma Concentration of CNS-102 ([1]; 12 mg/kg IV, 480 min, individual rats 1-3, BQL set to zero): 0.00 ng/mL
- Plasma Concentration of CNS-102 ([1]; 12 mg/kg IV, 720 min, average): 0.0 ng/mL
- Plasma Concentration of CNS-102 ([1]; 12 mg/kg IV, 720 min, individual rats 1-3, BQL set to zero): 0.00 ng/mL
- AUC(0-inf) ([1]; 12 mg/kg IV, average): 208728 ng·min/mL
- AUC(0-last) ([1]; 12 mg/kg IV, average): 115146 ng·min/mL
- C0 ([1]; 12 mg/kg IV, average): 9144.0 ng/mL
- Vss ([1]; 12 mg/kg IV, average): 9796 mL/kg
- Vz ([1]; 12 mg/kg IV, average): 12039 mL/kg
- t1/2 ([1]; 12 mg/kg IV, average): 147.0 min
- AUC(0-last) [1, 5]: 19934.3 ng·min/mL and 95802.8 ng·min/mL and 229701.4 ng·min/mL
- C0 [1, 5]: 7086.8 ng/mL and 17984.5 ng/mL and 2360.7 ng/mL
- AUC(0-inf) [1, 6]: 115420.9 ng·min/mL and 302035.6 ng·min/mL
- Vss [1, 6]: 6051.9 mL/kg and 13539.6 mL/kg
- Vz [1, 6]: 11699.8 mL/kg and 12378.5 mL/kg
- t1/2 [1, 6]: 78.0 min and 216.0 min
- F (0-inf) [1, 7]: 49.1%
- F (0-last) [1, 7]: 82.1%
- Plasma Concentration of CNS-102 ([1]; 24 mg/kg oral, 10 min, average): 0.0 ng/mL
- Plasma Concentration of CNS-102 ([1]; 24 mg/kg oral, 10 min, individual rats 4-6, BQL set to zero): 0 ng/mL
- Plasma Concentration of CNS-102 ([1]; 24 mg/kg oral, 30 min, average): 193.3 ng/mL
- Plasma Concentration of CNS-102 ([1]; 24 mg/kg oral, 30 min, individual rats 4-6, 24 mg/kg): 193.8 ng/mL and 224.3 ng/mL and 161.8 ng/mL
- Plasma Concentration of CNS-102 ([1]; 24 mg/kg oral, 60 min, average): 576.8 ng/mL
- Plasma Concentration of CNS-102 ([1]; 24 mg/kg oral, 60 min, individual rats 4-6, 24 mg/kg): 331.9 ng/mL and 500.2 ng/mL
- Plasma Concentration of CNS-102 ([1]; 24 mg/kg oral, 120 min, average): 176.8 ng/mL
- Plasma Concentration of CNS-102 ([1]; 24 mg/kg oral, 120 min, individual rats 4-6): 147.6 ng/mL
- Plasma Concentration of CNS-102 ([1]; 24 mg/kg oral, 240 min, average): 298.0 ng/mL
- Plasma Concentration of CNS-102 ([1]; 24 mg/kg oral, 240 min, individual rats 4-6, BQL set to zero): 0 ng/mL
- Plasma Concentration of CNS-102 ([1]; 24 mg/kg oral, 480 min, average): 489.7 ng/mL
- Plasma Concentration of CNS-102 ([1]; 24 mg/kg oral, 720 min, average): 47.2 ng/mL
- Plasma Concentration of CNS-102 ([1]; 24 mg/kg oral, 720 min, individual rats 4-6, BQL set to zero): 0 ng/mL
- Plasma Concentration of CNS-102 ([1]; 24 mg/kg oral, 1440 min, average): 0.0 ng/mL
- Plasma Concentration of CNS-102 ([1]; 24 mg/kg oral, 1440 min, individual rats 4-6, BQL set to zero): 0 ng/mL
- AUC(0-inf) ([1]; 24 mg/kg oral, average): 204878 ng·min/mL
- AUC(0-last) ([1]; 24 mg/kg oral, average): 189114 ng·min/mL
- Cmax ([1]; 24 mg/kg oral, average): 752.9 ng/mL
- Tmax ([1]; 24 mg/kg oral, average): 340 min
- t1/2 ([1]; 24 mg/kg oral, average): 103 min
- AUC(0-inf) [1, 8]: 234242 ng·min/mL and 157666 ng·min/mL and 222724 ng·min/mL
- AUC(0-last) [1, 8]: 214144 ng·min/mL and 130474 ng·min/mL and 222724 ng·min/mL
- Cmax [1, 8]: 768 ng/mL and 898.2 ng/mL and 592.5 ng/mL
- F (0-inf) [1, 8]: 56.1% and 37.8% and 53.4%
- F (0-last) [1, 8]: 93.0% and 56.7% and 96.7%
- Tmax [1, 8]: 480 min (2×) and 60 min
- t1/2 [1, 8]: 98.4 min and 173.7 min and 36.8 min
- HSP70 western signal (absence of compounds = 1.00) ([2]; 100 nM): 1.38
- HSP70 western signal (absence of compounds = 1.00) ([2]; 1 μM): 2.05
- HSP70 western signal (absence of compounds = 1.00) ([2]; 10 μM): 2.14
- induction of HSP70 expression ([2]; various concentrations): induce expression of HSP70
- Difference of mean fraction damaged to pooled PBS ([3]; KA at 24 hours): 0.005
- Difference of mean fraction damaged to pooled PBS ([3]; KA at 48 hours): −0.064
- Difference of mean fraction damaged to pooled PBS ([3]; KA at 72 hours): −0.092
- Difference of mean fraction damaged to pooled PBS ([3]; KA at 96 hours): −0.056
- Difference of mean fraction damaged to pooled PBS ([3]; KA at 168 hours): −0.026
- Mean fraction of cells damaged in the hippocampus ([3]; KA injected at 24 hours): 0.193
- Mean fraction of cells damaged in the hippocampus ([3]; KA injected at 48 hours): 0.123
- Mean fraction of cells damaged in the hippocampus ([3]; KA injected at 72 hours): 0.096
- Mean fraction of cells damaged in the hippocampus ([3]; KA injected at 96 hours): 0.131
- Mean fraction of cells damaged in the hippocampus ([3]; KA injected at 168 hours): 0.162
- Mean of Hippocampus CA3 Neurons Damaged ([3]; 24 mg/Kg rat oral, KA at 72 hours): 19.8182 Arbitrary units
- minimal effective dose ([3]; one dose of 0, 1, 3, 6, 12 or 24 mg/kg, kainic acid model): 12 mg/kg
- timepoint of maximal protection effect ([3]; single dose of 12 mg/kg): 72 h
- HSP70 induction [4]: strong induction of HSP70
